Measurements: patent US11969476B2, “Antibody molecule-drug conjugates and uses thereof” (priority 2020, dated 2024)
≈ marks a conversion by molar mass, not a printed value. Where two headings read alike, the source gives them in different places. Square brackets hold non-standard residues; d marks the D form. Peptide text beside a SMILES is read from it.

What was measured:
Pae 27853 = experiment: MIC determination (CLSI, 2-fold serial dilutions); type: cell-based, Pseudomonas aeruginosa
Protocol: (§1) Assessment of Antimicrobial Activity. […] All plates were placed at 37° C. overnight. After 18 hours the plates were read using a mirrored plate reader and reflected incandescent light. […] Wells at and above the MIC should appear void of growth when read by eye.

Pae 39324 = experiment: MIC determination (CLSI, 2-fold serial dilutions); type: cell-based, Pseudomonas aeruginosa
Protocol: as §1

Eco 25922 = experiment: MIC determination (CLSI, 2-fold serial dilutions); type: cell-based, E. coli
Protocol: as §1

Sau 29213 = experiment: MIC determination (CLSI, 2-fold serial dilutions); type: cell-based, S. Aureus
Protocol: as §1

[1] = MIC in human serum (hsMIC) relative to MIC; type: cell-based; settings: NA, no active in human serum
Protocol: In an embodiment, the MIC is determined in the presence of phosphate-buffered saline (PBS). In an embodiment, the MIC or hsMIC is determined on per ADC basis. In an embodiment, the MIC or hsMIC is determined on per payload or antimicrobial peptide basis.

human red blood cells [2] = test system: human red blood cells
P. aeruginosa BAA-2108 = test system: P. aeruginosa BAA-2108; parameters: key: R = Resistant; S = Suspectible; I = Intermediate; NT = Note Tested; settings: strain BAA-2108, isolated from human sputum; cited from earlier work
P. aeruginosa BAA-2109 = test system: P. aeruginosa BAA-2109; parameters: key: R = Resistant; S = Suspectible; I = Intermediate; NT = Note Tested; settings: strain BAA-2109, isolated from human sputum; cited from earlier work
P. aeruginosa BAA-2110 = test system: P. aeruginosa BAA-2110; parameters: key: R = Resistant; S = Suspectible; I = Intermediate; NT = Note Tested; settings: strain BAA-2110, isolated from human sputum; cited from earlier work
P. aeruginosa BAA-2111 = test system: P. aeruginosa BAA-2111; parameters: key: R = Resistant; S = Suspectible; I = Intermediate; NT = Note Tested; settings: strain BAA-2111, isolated from human sputum; cited from earlier work
P. aeruginosa BAA-2112 = test system: P. aeruginosa BAA-2112; parameters: key: R = Resistant; S = Suspectible; I = Intermediate; NT = Note Tested; settings: strain BAA-2112, isolated from human sputum; cited from earlier work
P. aeruginosa BAA-2113 = settings: strain BAA-2113, isolated from human sputum; cited from earlier work
P. aeruginosa BAA-2114 = test system: P. aeruginosa BAA-2114; parameters: key: R = Resistant; S = Suspectible; I = Intermediate; NT = Note Tested; settings: strain BAA-2114, isolated from human sputum; cited from earlier work
[3] = Cytotoxicity to mammalian cells; settings: human, 293T cells, Cytotox CC50, concentration at which 50% cytotoxicity of mammalian cells is observed
[4] = in words, human serum
Protocol: Assessment of Serum Stability. […] Twenty μl of each test article was placed in a 2.0 ml round bottom microfuge tube. […] Assay tubes were placed at 37° C. in a rotating rack between time-points. […] Supernatant from each tube was collected and frozen at −20° C. for analysis. Samples were harvested and processed at various time-points up to 6 hours.

293T = experiment: Cytotoxicity to mammalian cells; settings: in words
human red blood cells [5] = experiment: Red blood cell hemolysis (MLC, PLC); settings: in words
P. aeruginosa = experiment: MIC testing of antimicrobial peptides (screen); type: cell-based; settings: in words
Text: Initially, a bioinformatics-driven workflow (mine public database of AMPs (YADAMP)→cluster AMPs by properties→evaluate activity and toxicity) was utilized to select AMPs for experimental characterization to identify potent payloads with a high therapeutic index (FIG. 7A). […] To facilitate identification of AMPs for use in an ADC, a screening strategy that clustered peptides based on their underlying physicochemical properties was implemented, followed by characterization of representative members from each cluster. Here YADAMP, a database of AMPs that contains over 2,500 sequences of peptides with reported antibacterial activity, was used. Clustering was performed by utilizing a K-means algorithm using calculated properties that have been reported to be relevant to antimicrobial activity (peptide length, predicted helicity, predicted hydropathy, percentage of select amino acids [Lys, Arg, Trp, Cys, His], and charge at pH7, pH5, and pH9). […] Once potent peptides with favorable characteristics were identified, the remaining members of the corresponding clusters were then selected for experimental characterization. […]
Assessment of Antimicrobial Activity. […] After 18 hours the plates were read using a mirrored plate reader and reflected incandescent light. […] Wells at and above the MIC should appear void of growth when read by eye.

P. aeruginosa PA14 = experiment: Acute (immunocompetent) lung infection model; settings: immunocompetent mice, single intraperitoneal dose 15 mg/kg three hours post-infection, 100 hours
[6] = numbers in parentheses are molar equivalents

CC(C)(O/N=C(\C(=O)N[C@@H]1C(=O)N2C(C(=O)[O-])=C(C[n+]3ccccc3)CS[C@H]12)c1csc(N)n1)C(=O)O [Ceftazidime]
MIC Pae 27853 (Pae 27853): 1 μg,/ml | MIC Pae 27853, molar equivalents (Pae 27853; [6]): (1.8) | MIC Pae 39324 (Pae 39324): 1 μg,/ml | MIC Pae 39324, molar equivalents (Pae 39324; [6]): (1.8) | MIC Eco 25922 (Eco 25922): 0.25 μg,/ml | MIC Eco 25922, molar equivalents (Eco 25922; [6]): (0.5) | MIC Sau 29213 (Sau 29213): 4 μg,/ml | MIC Sau 29213, molar equivalents (Sau 29213; [6]): (7.3) | Human Serum hsMIC/MIC [1]: 1 | Hemolysis MLC/MIC (human red blood cells [2]): 16 | Hemolysis PLC/MIC (human red blood cells [2]): 8 | antibiotic resistance phenotype (P. aeruginosa BAA-2108): S | antibiotic resistance phenotype (P. aeruginosa BAA-2109): S | antibiotic resistance phenotype (P. aeruginosa BAA-2110): S | antibiotic resistance phenotype (P. aeruginosa BAA-2111): S | antibiotic resistance phenotype (P. aeruginosa BAA-2112): S | antibiotic resistance phenotype (P. aeruginosa BAA-2113): I/R | antibiotic resistance phenotype (P. aeruginosa BAA-2114): S | CC50 [3]: 550 µg/mL (≈ 1010 µM)

CC[C@@H](C)[C@@H](NC(=O)[C@H](NC(=O)[C@@H](CCCNC(=N)N)NC(=O)[C@H]1CCCN1C(=O)[C@@H](CCCCN)NC(=O)[C@@H](CCCCN)NC(=O)[C@@H](Cc1ccccc1)NC(=O)[C@@H](Cc1ccccc1)NC(=O)[C@@H](CCC(=O)O)NC(=O)[C@@H](CCCCN)NC(=O)[C@@H](C)NC(=O)[C@@H](CCCNC(=N)N)NC(=O)[C@@H](CCCCN)NC(=O)[C@@H](CCCCN)NC(=O)[C@H](NC(=O)[C@@H](CO)NC(=O)[C@@H](CCCCN)NC(=O)[C@@H](CCCCN)NC(=O)[C@@H](CC(C)C)NC(=O)[C@@H](CCCCN)NC(=O)[C@@H](CCCNC(=N)N)NC(=O)[C@@H](Cc1ccccc1)NC(=O)[C@@H](Cc1ccccc1)NC(=O)[C@@H](CCCCN)NC(=O)CNC(=O)CNC(=O)CN)C(C)C)C(C)C)C(=O)NCC(=O)N[C@@H](C(=O)N[C@H](CO)C(=O)N[C@@H](C(=O)N1CCC[C@@H]1C(=O)N[C@H](Cc1ccccc1)C(=O)O)[C@H](C)CC)C(C)C [Peptide D297] (H-GGG[dK][dF][dF][dR][dK][dL][dK][dK][dS][dV][dK][dK][dR][dA][dK][dE][dF][dF][dK][dK][dP][dR][dV][dI]G[dV][dS][dI][dP][dF]-OH)
serum stability [4]: stable in serum | serum stability ([4]; listed as (D)-P297): more stable than (L)-P297 | cytotoxic activity against mammalian cells (293T): low hemolytic and cytotoxic activity | hemolytic activity (human red blood cells [5]): low hemolytic and cytotoxic activity

GGGKLLRKLKKSVKKRAKELLKKPRVIGVSIPL [Peptide P369]
potency against P. aeruginosa (P. aeruginosa): more potent peptide

cathelicidin-BF
potency against P. aeruginosa (P. aeruginosa): potent MIC values against multiple P. aeruginosa strains | cytotoxic activity against mammalian cells (293T): inability to kill mammalian cells | hemolytic activity (human red blood cells [5]): low hemolytic activity

B1: actoxumab-D297: sham-conjugate prepared using a non-P. aeruginosa targeting antibody (actoxumab) (conjugate, chains of the INN, looked up)
VH: QVQLVESGGGVVQPGRSLRLSCAASGFSFSNYGMHWVRQAPGKGLEWVALIWYDGSNEDYTDSVKGRFTISRDNSKNTLYLQMNSLRAEDTAVYYCARWGMVRGVIDVFDIWGQGTVVTVSS
VL: DIQMTQSPSSVSASVGDRVTITCRASQGISSWLAWYQHKPGKAPKLLIYAASSLQSGVPSRFSGSGSGTDFTLTISSLQPEDFATYYCQQANSFPWTFGQGTKVEIK
modifications: D297 payload; sham conjugate
survival (P. aeruginosa PA14): no survival benefit
